Data on 1 compound can be found in patent US20130273649A1, “Culture medium for pluripotent stem cells” (UNIVERSITY OF SOUTHERN CALIFORNIA, priority 2012, published 2013).

One assay has as its system Axin1. Nature of the assay: Western blot of Axin1 in human ESCs. The assay is classed as cell-based. Particulars: human ESCs treated 24 h. As for the experimental part:
(A) TOPFlash™ assay in H9 human ESCs subjected to the indicated treatments for 24 h. Data represent mean±s.d. of three biological replicates. (B) Representative phase contrast and alkaline phosphatase (AP) staining images of H9 human ESCs cultured in the indicated conditions for 3 passages. (C) Phase contrast images of H9 human ESCs cultured in CHIR/XAV or CHIR/IWR-1 for 11 passages. (D) Colony forming efficiency assay of H9 human ESCs cultured in FGF2 or CHIR/IWR-1 conditions. Data represent mean±s.d. of three biological replicates. Right panel: a representative image showing AP staining of colonies formed from H9 human ESCs cultured in either FGF2 or CHIR/IWR-1 condition. (E) Human ESCs cultured in CHIR/IWR-1 for 11 passages were immunostained with the indicated antibodies. (F) Embryoid bodies (EBs) were generated from H9 human ESCs cultured in CHIR/IWR-1 for 11 passages. The outgrowths of EBs were immunostained with the indicated antibodies. (G) H&E staining of teratomas generated from H9 ESCs cultured in CHIR/IWR-1 for 20 passages. (H) Western blot analysis of Axin1 and Axin2 expression in HES3 human ESCs treated with the indicated cytokines/inhibitors for 24 h. (I) Immunofluorescence images of H9 human ESCs (passage 5 in CHIR) overexpressing Flag-tagged Axin2. […]

In a further assay the test system is H9 human ESCs. Nature of the assay: Human ESC self-renewal culture. The class given is cell-based. The text has this: As human ESCs share defining features with mouse EpiSCs (Hanna et al., 2010; Rossant, 2008; Tesar et al., 2007), we tested whether modulating β-catenin function can also promote human ESC self-renewal. […] Next, we examined the effect of CHIR/XAV and CHIR/IWR-1 on human ESC self-renewal. […] Similar results were obtained in H1 and HES3 human ESCs (data not shown). […] Moreover, human ESCs maintained in CHIR/IWR-1 express pluripotency markers Oct4, Nanog and Sox2 (FIG. 7E), and retain the ability to differentiate into cells of all three germ layers, both in vitro and in vivo (FIGS. 7F and 7G).
The basal medium for mouse EpiSC culture is the conventional mouse ESC medium, which consists of GMEM (Sigma) supplemented with 10% fetal bovine serum (FBS) (Hyclone), 2 mM L-glutamine (Invitrogen), 1 mM sodium pyruvate (Invitrogen), 1% nonessential amino acids (Invitrogen), and 0.1 mM (3-mercaptoethanol. Mouse EpiSCs were derived and maintained in the basal medium supplemented with FGF2/activin, CHIR/XAV, or CHIR/IWR-1. The basal medium for rat EpiSC culture is N2B27 (Tong et al., 2011), which was prepared by mixing 500 ml of DMEM/F12 (Invitrogen) with 500 ml of Neurobasal™ medium (Invitrogen), and adding 5 ml of N2 (Invitrogen), 10 ml of B27 (Invitrogen), 5 ml of Glutamax™ (Invitrogen), and 1 ml of 0.1 M β-mercaptoethanol (Sigma). The basal medium for human ESC culture consists of Knockout™ DMEM/F12 supplemented with 20% KSR (Invitrogen), 1% nonessential amino acids, 2 mM L-glutamine, and 0.1 mM (3-mercaptoethanol. Human ESCs were cultured in the basal medium supplemented with FGF2, CHIR/XAV, or CHIR/IWR-1.
H1, H9, HES-2 and HES-3 human ESC lines were kindly provided by the University of Southern California Stem Cell Core Facility. Human ESCs were routinely maintained on γ-irradiated MEF feeders in Knockout™ DMEM medium (Invitrogen) supplemented with 20% Knockout™ serum replacement (KSR; Invitrogen), 10 ng/ml FGF2 (PeproTech), 1% nonessential amino acids, 2 mM L-glutamine, and 0.1 mM β-mercaptoethanol. […]

As for `Cc1c[nH]c(-c2cnc(NCCNc3ccc(C#N)cn3)nc2-c2ccc(Cl)cc2Cl)n1` [CHIR99021, 6-((2-((4-(2,4-Dichlorophenyl)-5-(4-methyl-1H-imidazol-2-yl)pyrimidin-2-yl)amino)ethyl)amino)nicotinonitrile], the “amount of Axin1 protein” value in the assay with Axin1 is “not Axin1”. Moreover, in the assay on H9 human ESCs (Axin2-hESC (H9), CHIR alone), the “self-renewal of Axin2-overexpressing human ESCs” value is “could support stable and long-term self-renewal of Axin2-hESCs”. In addition, the “human ESC self-renewal / differentiation” value with H9 human ESCs (H9 human ESCs, CHIR 3 μM, IWR-1 2.5 μM, XAV939 2 μM) is “induced differentiation of H9 human ESCs”.
